Results: patent EP0114887B1, “POLYPEPTIDE” (LA JOLLA CANCER RESEARCH FOUNDATION, priority 1982, dated 1990)
Peptide text beside a SMILES is read from it.

Tests used:
cells [1] = test: Cell attachment to peptide-coupled Sepharose (agarose) beads; type: cell-based; settings: coupled to cyanogen bromide-activated agarose beads (Sepharose), sterilized by autoclaving
Experimental: The four synthetic peptides as well as the 11.5-kDal fragment and a 200-kDal fragment of fibronectin were coupled to cyanogen bromide-activated Sepharose-6MB beads (Pharmacia) according to the manufacturer's instructions. The peptides were first reduced as described above and used at 8 mg of peptide per ml of Sepharose. Albumin-coated beads and beads derivatized with ethanolamine were used as controls.
The cell attachment assays were performed as described (Ruoslahti, E. et al (1981) Methods Enzymology82,803-831) with human fibroblasts or normal rat kidney (NRK) cells. Briefly, 100 I of a single- cell suspension containing […] was placed in a flat-bottom microtiter well that had been coated with one of the peptides or with fibronectin. After 1 h at 37°C, unattached cells were washed away and attached cells were fixed and stained for counting. In some experiments soluble peptide was added to the medium to determine if its presence during the attachment would have an inhibitory effect. Cell attachment to the agarose beads was performed on a layer of beads in the bottom of a round-bottom microtiter well exactly as described above.

cells [2] = test: Cell-attachment activity of the synthetic fragment compared with the entire polypeptide; type: cell-based

CC[C@H](C)[C@H](NC(=O)[C@H](CO)NC(=O)[C@@H](NC(=O)[C@@H]1CCCN1C(=O)[C@H](CCCCN)NC(=O)[C@H](CO)NC(=O)[C@H](CO)NC(=O)[C@H](C)NC(=O)[C@@H]1CCCN1C(=O)[C@H](CO)NC(=O)[C@H](CC(=O)O)NC(=O)CNC(=O)[C@H](CCCNC(=N)N)NC(=O)CNC(=O)[C@@H](NC(=O)[C@@H](NC(=O)[C@H](C)NC(=O)[C@@H](N)Cc1ccc(O)cc1)C(C)C)[C@@H](C)O)[C@@H](C)CC)C(=O)N[C@@H](CC(N)=O)C(=O)N[C@@H](Cc1ccc(O)cc1)C(=O)N[C@@H](CCCNC(=N)N)C(=O)N[C@H](C(=O)N[C@@H](CCC(=O)O)C(=O)N[C@H](C(=O)N[C@@H](CC(=O)O)C(=O)N[C@@H](CCCCN)C(=O)N1CCC[C@H]1C(=O)N[C@@H](CO)C(=O)N[C@@H](CCC(N)=O)C(=O)N[C@@H](CCSC)C(=O)O)[C@@H](C)CC)[C@@H](C)O [30-residue fragment, H-Tyr-Ala-Val-Thr-Gly-Arg-Gly-Asp-Ser-Pro-Ala-Ser-Ser-Lys-Pro-IIe-Ser-IIe-Asn-Tyr-Arg-Thr-Glu-IIe-Asp-Lys-Pro-Ser-Gln-Met-OH] (H-YAVTGRGDSPASSKPISINYRTEIDKPSQM-OH)
attachment of cells to beads (cells [1]): induces attachment of cells to the beads | cell-attachment activity compared with the entire sequence (cells [2]): the same activity as the entire sequence
